From patent US20230041138A1, “TREATMENT OF HIS HYPORESPONDERS” (NewAmsterdam Pharma B.V. (Dutch Registration No. 55971946), priority 2021, published 2023)
Values joined by “and” are separate entries in the source; they are usually repeats but may differ in a detail not shown here. Identical values can stand only once.

Tested on: Lipoprotein, lipid and apolipoprotein concentrations
Assay: Phase 2 placebo-controlled study of obicetrapib as adjunct to high-intensity statin therapy: lipid efficacy
Assay type: in vivo, human
Conditions: for Apo A1, week 8 change, LS Mean ± SE / Apo B, week 8 change, LS Mean ± SE / HDL-C, week 8 change, LS Mean ± SE / LDL-C (Martin-Hopkins), week 8 change, LS Mean ± SE / Lp(a), week 8 change, LS Mean ± SE / Non-HDL-C, week 8 change, LS Mean ± SE / TG, week 8 change, LS Mean ± SE / VLDL-C, week 8 change, LS Mean ± SE / LDL-C by Friedewald, % change from baseline, LS mean: MMRM; for LDL-C (PUC), week 8 change, LS Mean ± SE (Table 9): analysis of covariance model; for LDL-C (Friedewald formula) reduced from baseline by: primary analysis; for LDL-C (Friedewald formula) reduced from baseline by / Apo B reduced by / Lp(a) reduced by / non-HDL-C reduced by: stated as reduction; for ApoB, % change from baseline, median / HDL-C, % change from baseline, median / LDL-C by Friedewald, % change from baseline (median) / LDL-C by PUC, % change from baseline (median) / Non-HDL-C, % change (median) from baseline / LDL-C by Friedewald, % change from baseline, LS mean: week 8, on top of high-intensity statin
Method: The study consisted of three arms: 1) 5 mg obicetrapib as adjunctive therapy; 2) 10 mg obicetrapib as adjunctive therapy and 3) a placebo arm. The second objective was to evaluate other lipoprotein lipid and apolipoprotein responses, safety and tolerability profiles, and plasma concentrations of obicetrapib during treatment and for several weeks of follow-up. Lastly, this study aimed to determine if different quantitative measures of LDL-C levels produced differences in the treatment effects of CETP inhibition.
This randomised, double-blind, placebo-controlled, parallel-group phase 2 trial was conducted in male and female patients (18-75 years), treated with high-intensity statin therapy, with LDL-C levels >70 mg/DL and TG levels <400 mg/dL. Key exclusion criteria were patients with BMI >40 kg/m; Significant cardiovascular disease; HbAc >10%; Uncontrolled hypertension; Active muscle disease; GFR <60 ml/min; Hepatic dysfunction; Anemia; History of malignancy; Alcohol abuse; Treatment with investigational product; Treatment with PCSK9 inhibitor; Clinically significant condition; and/or prior exposure to a CETP inhibitor. Patients were recruited at 19 sites in the United States. The trial was approved by Independent Ethics Committees, and each patient provided written informed consent. The trial was conducted in accordance with the principles of the Declaration of Helsinki and Good Clinical Practice Guidelines and the protocol was registered on ClinicalTrials.gov (NCT04753606).
The screening period for this study took up to 2-weeks. Afterwards patients were randomized to placebo, 5 mg obicetrapib or 10 mg obicetrapib for an 8-week treatment period. After the treatment period, patients continued for a 4-week safety follow-up and a 15-week PK follow-up.
Patients were randomly assigned to receive one of the three treatments investigative treatments. All treatments were to be taken once daily with food for 8 weeks. Safety was assessed throughout the trial by monitoring adverse events and concomitant medication use, 12-lead electrocardiograms (ECGs), vital signs, laboratory safety assessments and physical examinations. Additional assessments included salivary cortisol, plasma aldosterone, high-sensitivity C-reactive protein (hsCRP) and endothelin 1.
Efficacy assessments included fasted lipid profiles including total cholesterol (TC), HDL-C, LDL-C, triglycerides, apolipoprotein B (ApoB), and derived parameters.
Total cholesterol and triglycerides were measured by homogenous enzymatic assay using a Modular analyser (cholesterol oxidase peroxidase-peroxidase aminophenazone phenol [CHOP-PAP]) method and a glycerol phosphate oxidase [GPO-PAP] method, respectively. Apolipoprotein B was measured by immunoturbidimetry using reagents from Rolf Greiner Biochemica (Germany) and N apoprotein standard serum from Siemens (Germany). LDL particle size was determined by gradient gel electrophoresis. HDL fraction was separated by a combined ultracentrifugation-precipitation method (β-quantification). HDL-2 and HDL-3 fractions were then separated by further ultracentrifugation. Total-cholesterol in HDL, HDL 2 and HLD-3 fractions, free cholesterol in HDL fraction, triglycerides in HDL fraction and phospholipids in plasma and HDL-fraction were measured using enzymatic methods and reagents from Diasys Diagnostics (Germany). The measurements were performed on an Olympus AU600 automatic analyzer and were calibrated using secondary standards from Roche Diagnostics (total-cholesterol, triglycerides) and Diasys Diagnostics (free cholesterol, phospholipids), respectively. Esterified cholesterol was calculated as the difference between total-cholesterol and free cholesterol.
The primary outcome measure was LDL-C (percent change). Secondary outcome measures included ApoB, Non-HDL-C and HDL-C (percent change). The Intent-to-Treat (ITT) Population included all participants randomized into the study. […]

[1] = 5 mg once daily for 8 weeks on top of high-intensity statin
[2] = 5 mg once daily on top of high-intensity statin
[3] = 5 mg once daily on top of high-intensity statin, listed as obicetrapib
[4] = 5 mg once daily, 8 weeks, on top of high-intensity statin
[5] = 10 mg once daily for 8 weeks on top of high-intensity statin
[6] = 10 mg once daily on top of high-intensity statin
[7] = 10 mg once daily, 8 weeks, on top of high-intensity statin

CCOC(=O)N1c2ccc(C(F)(F)F)cc2[C@@H](N(Cc2cc(C(F)(F)F)cc(C(F)(F)F)c2)c2ncc(OCCCC(=O)O)cn2)C[C@H]1CC [Obicetrapib, (2R,4S)-4-{[3,5-bis(trifluoromethyl)benzyl]-[5-(3-carboxypropoxy)pyrimidin-2-yl]amino}-2-ethyl-6-trifluoromethyl-3,4-dihydro-2H-quinoline-1-carboxylic acid ethyl ester]
Time of treatment at which maximum LDL-C reductions were already present (5 mg and 10 mg add-on to high-intensity statin): ≤ 4 weeks | ApoB, EoT median [1]: 65.0 mg/dL | ApoB, change from baseline, median [1]: -22.0 mg/dL | HDL-C, EoT median [1]: 107.0 mg/dL | HDL-C, change from baseline, median [1]: 60.0 mg/dL | LDL-C by Friedewald, EoT median [1]: 51.0 mg/dL | LDL-C by PUC, EoT median [1]: 53.0 mg/dL | Non-HDL-C, EoT median [1]: 71 mg/dL | Apo A1, week 8 change, median (min, max) [2]: 44.6% and 44.6 (−10.0, 87.1) % | LDL-C (Martin-Hopkins), week 8 change, median (min, max) [2]: −42.5 (−80.8, 74.4) % | Lp(a), week 8 change, median (min, max) [2]: −33.8 (−84.6, 93.8) % | TG, week 8 change, median (min, max) [2]: −11.0 (−53.3, 86.7) % | VLDL-C, week 8 change, median (min, max) [2]: −11.5 (−53.5, 83.3) % | Apo A1, week 8 change, LS Mean ± SE [2]: 41.1 ± 3.04% | Apo B, week 8 change, LS Mean ± SE [2]: −22.4 ± 2.58% | HDL-C, week 8 change, LS Mean ± SE [2]: 122 ± 6.59% | LDL-C (Martin-Hopkins), week 8 change, LS Mean ± SE [2]: −39.6 ± 3.68% | Lp(a), week 8 change, LS Mean ± SE [2]: −30.9 ± 4.43% | Non-HDL-C, week 8 change, LS Mean ± SE [2]: −34.4 ± 3.18% | TG, week 8 change, LS Mean ± SE [2]: −6.63 ± 5.32% | VLDL-C, week 8 change, LS Mean ± SE [2]: −6.02 ± 5.24% | LDL-C (PUC), week 8 change, LS Mean ± SE (Table 9) [2]: −35.7 ± 3.31% | LDL-C (Martin-Hopkins), week 8 change, median (min, max) [3]: 42.5% | TG, week 8 change, median (min, max) [3]: −11.0% | VLDL-C, week 8 change, median (min, max) [3]: −11.5% | LDL-C by PUC, % change from baseline, LS mean (Table 3) [4]: −37.98% | LDL-C (Friedewald formula) reduced from baseline by [4]: 42.9% | Apo B reduced by [4]: 24.4% | Lp(a) reduced by [4]: 33.8% | non-HDL-C reduced by [4]: 38.9% | ApoB, % change from baseline, median (5 mg once daily): −24.40% and −24.4 (−58.5, 47.4) % | HDL-C, % change from baseline, median (5 mg once daily): 135% and 135.4% and 135 (−26.4, 213) % | LDL-C by Friedewald, % change from baseline (median) (5 mg once daily): −42.90% and −42.9 (−81.9, 72.4) % | LDL-C by PUC, % change from baseline (median) (5 mg once daily): −41.5% and −41.45% and −41.5 (−71.2, 62.3) % | Non-HDL-C, % change (median) from baseline (5 mg once daily): −38.9% and −38.9 (−65.6, 66.3) % | LDL-C by Friedewald, % change from baseline, LS mean (5 mg once daily): −37.94% and −38.0 ± 3.49% | LDL-C by PUC, % change from baseline (median) (5 mg once daily, listed as obicetrapib): −41.5% | ApoB, EoT median [5]: 58.5 mg/dL | ApoB, change from baseline, median [5]: -24.5 mg/dL | HDL-C, EoT median [5]: 117.5 mg/dL | HDL-C, change from baseline, median [5]: 72.0 mg/dL | LDL-C by Friedewald, EoT median [5]: 52.0 mg/dL | LDL-C by PUC, EoT median [5]: 49.5 mg/dL | Non-HDL-C, EoT median [5]: 69 mg/dL | Apo A1, week 8 change, median (min, max) [6]: 47.8% and 47.8 (13.5, 106) % | LDL-C (Martin-Hopkins), week 8 change, median (min, max) [6]: −49.2 (−77.0, 28.1) % | Lp(a), week 8 change, median (min, max) [6]: −56.5 (−85.7, 18.3) % | TG, week 8 change, median (min, max) [6]: −7.85 (−63.7, 129) % | VLDL-C, week 8 change, median (min, max) [6]: −7.90 (−44.4, 125) % | Apo A1, week 8 change, LS Mean ± SE [6]: 52.3 ± 3.04% | Apo B, week 8 change, LS Mean ± SE [6]: −28.1 ± 2.56% | HDL-C, week 8 change, LS Mean ± SE [6]: 157 ± 6.54% | LDL-C (Martin-Hopkins), week 8 change, LS Mean ± SE [6]: −46.9 ± 3.65% | Lp(a), week 8 change, LS Mean ± SE [6]: −42.0 ± 4.33% | Non-HDL-C, week 8 change, LS Mean ± SE [6]: −39.9 ± 3.15% | TG, week 8 change, LS Mean ± SE [6]: 2.45 ± 5.27% | VLDL-C, week 8 change, LS Mean ± SE [6]: 3.08 ± 5.19% | LDL-C (PUC), week 8 change, LS Mean ± SE (Table 9) [6]: −46.8 ± 3.23% | LDL-C (Martin-Hopkins), week 8 change, median (min, max) (10 mg once daily on top of high-intensity statin, listed as obicetrapib): −49.2% | LDL-C by PUC, % change from baseline, LS mean (Table 3) [7]: −44.15% | TG and VLDL-C, comparison with placebo [7]: not significantly different | LDL-C (Friedewald formula) reduced from baseline by [7]: 45.7% | Apo B reduced by [7]: 29.8% | Lp(a) reduced by [7]: 56.5% | non-HDL-C reduced by [7]: 44.4% | ApoB, % change from baseline, median (10 mg once daily): −29.75% and −29.8 (−58.4, 13.0) % | HDL-C, % change from baseline, median (10 mg once daily): 165% and 165 (55.1,286) % | LDL-C by Friedewald, % change from baseline (median) (10 mg once daily): −45.65% and −45.7 (−78.0, 26.2) % | LDL-C by PUC, % change from baseline (median) (10 mg once daily): −50.8% and −50.75% and −50.8 (−76.9, 15.6) % | Non-HDL-C, % change (median) from baseline (10 mg once daily): −44.4% and −44.4 (.70.2, 22.5) % | LDL-C by Friedewald, % change from baseline, LS mean (10 mg once daily): −44.15% and −44.2 ± 3.46% | LDL-C by PUC, % change from baseline (median) (10 mg once daily, listed as obicetrapib): −50.8% | median Apo B reduction from baseline, post-hoc analysis (10 mg, individuals with baseline Apo B >100 mg/dL): 39%
